Test results taken from patent US10188633B2, “Identification of small molecules that facilitate therapeutic exon skipping” (The Regents of the University of California, priority 2011, dated 2019).

Columns and labels:
[1] = system: human DMD exon 50 GFP based reporter; test: BioMol high throughput screen in Ex50-GFP reporter C2C12 myoblasts, with or without AON6; type: cell-based, mouse; settings: With AON6 screen, compound 10 uM; for Fluorescence Plate 1 / Fluorescence Plate 2 / Fluorescence Plate 3: 48 h; for Fluorescence Plate 1: fluorescence normalized by subtracting DMSO carrier controls; for Fluorescence Plate 2 / Fluorescence Plate 3: normalized to DMSO carrier controls; for Average Fluorescence (n = 3): average of 3 replicate plates
Source text: Small molecule libraries were screened for exon skipping promoting activity in C2C12 myoblasts expressing a human DMD exon 50 GFP based reporter. […] In the reporter cells, successful skipping of DMD exon 50 creates in-frame GFP expression. Number of cells that were fluorescing was quantified using a high content cell imager in 384 well plate format. Fluorescence was normalized by subtracting the average fluorescence value of the carrier (DMSO) controls. Fluorescence readouts are plotted for the BioMol library screen both with (+AO) and without (−AO) from Source Plate 1 (containing the Orphan Ligand, Ion Channel, Enzyme Inhibitor, and Endocannabanoid libraries, n=300). Each point for the DMSO controls, all compounds, and the Top 5% from Source Plate 1 (n=15) represents the average normalized fluorescence of 6 replicates in the −AO screen and 3 replicates in the +AO screen. […] Individual points for dantrolene are plotted with the bold horizontal line indicating the median. The short horizontal lines interspersed among the data points indicate 1, 2, and 3 standard deviations away from the DMSO treatment mean fluorescence.
In contrast to prior screens aimed at identifying small molecules which impact exon skipping, our screen is unique at least because it relies on robust quantitation of a skipping reporter in the context of a muscle lineage cell in the presence and absence of suboptimal AO. These screens were performed using a mouse muscle cell line (C2C12) expressing a human DMD exon 50 GFP based reporter selected to minimize experimental variation and sensitivity in the context of an automated and quantitative fluorescent scanning system.
AO was added prior to small molecule incubation in an effort to identify molecules that facilitate AO skipping rather than AO delivery. The fluorescence induced by each compound was normalized to a vehicle controls per plate to correct for plate to plate variability. Fluorescence was averaged across replicate plates (n=6 without AO screen, n=3 with AO screen). Compounds were rank ordered based on average intensity of fluorescence and difference between the without AO and with AO screen (FIG. 1 and Table 2).
(§1) A stable clone was generated from C2C12 cells transfected with a human exon 50 DMD GFP reporter (ex50GFP) that has been previously described. Ex50GFP reporter myoblasts were seeded into uncoated 384 well plates and were incubated for 4 hours either with or without 300 nM of 2′-O-methyl phosphorothioate AON6 [5′[…] 3′ (SEQ ID NO:1)] targeting the human exon 50 splice donor site. Cells were transfected with AON6 using the FUGENE (Roche) transfection reagent per manufacturer's instructions. Following AON6 incubation, each component of the BioMol library (n=503) was screened at 10 uM concentration with a final concentration of the DMSO carrier being 1%. Forty-eight hours later fluorescence was measured using the MicroXpress high content imager and analyzed using MetaXpress. Immediately preceding imaging, DNA was stained with Hoescht for 30 min. The BioMol screen without AO (−AO) was performed in 6 replicates, and the with AO (+AO) screen was performed in 3 replicates. For the screen analysis raw fluorescence values were normalized to carrier controls present on each plate by subtracting the values. Negative fluorescence values were set to 0. The data from each compound were averaged from all replicates. For secondary screening by 12 or 16 point dose response, Ex50GFP myoblasts or C2C12 cells without the reporter were seeded on uncoated 384 well plates. A sub-optimal dose of AON6 targeting DMD exon 50 was added for 4 hours.

[2] = system: human DMD exon 50 GFP based reporter; test: Secondary screening, 12 or 16 point titrations on the DMD exon 50 reporter cell line with or without AON6; type: cell-based, mouse; settings: for increase in fluorescence in the Ex50-GFP+AO compared to the reporter line without AO: 12 or 16 point titrations from 100 uM, positivity criterion (FIG. 5 legend: >10%); for dose response in Ex50-GFP reporter: 12 or 16 point titrations with AON6
Method: 12 or 16 point titrations of compounds were added to the Ex50-GFP and C2C12 myoblasts either with or without AON6.
as §1, with “hours. Following the 4 hour incubation, a compound dilution was added (beginning at 100 uM with 1:1 dilutions) for either 12 or 16 points. After a 48 hour incubation with compounds, DNA was stained with Hoescht, and fluorescence determined using the high content imager and analyzed with MetaXpress.” for “hours.”

[3] = system: Ca2+-ATPase of sarcoplasmic reticulum; settings: at 0.5-2 μM ATP; cited from earlier work
DMD exon 31 = settings: cited from earlier work
DMD exon 51 = settings: cited from earlier work
[4] = cited from earlier work

CYCLOPIAZONIC ACID
Fluorescence Plate 1 [1]: 29.57
Fluorescence Plate 2 [1]: 33.40
Fluorescence Plate 3 [1]: 17.24
Average Fluorescence (n = 3) [1]: 26.74
increase in fluorescence in the Ex50-GFP+AO compared to the reporter line without AO [2]: 10%
dose response in Ex50-GFP reporter [2]: evidence of a dose response
amount completely inhibiting the enzyme [3]: Induces the release of intracellular stored Ca2+, without increasing IP3 levels, via inhibition of endoplasmic reticulum Ca2+− ATPase. It is a highly specific inhibitor of the Ca2+− ATPase of sarcoplasmic reticulum, completely inhibiting the enzyme at 6-8 nmol/mg protein (at 0.5-2 μM ATP).

CCN1/C(=C/C(C)=O)Sc2ccc(OC)cc21 [TG003]
mutant exon 31 skipping (DMD exon 31): increased mutant exon 31 skipping

CC1CNCCN1S(=O)(=O)c1cccc2cnccc12 (centres unmarked) [H-7]
Fluorescence Plate 1 [1]: 29.03
Fluorescence Plate 2 [1]: 30.45
Fluorescence Plate 3 [1]: 12.11
Average Fluorescence (n = 3) [1]: 23.87
increase in fluorescence in the Ex50-GFP+AO compared to the reporter line without AO [2]: 10%
dose response in Ex50-GFP reporter [2]: evidence of a dose response

Pro051: systemic 2′-O-methyl modified AO directed against DMD exon 51 (antisense UCAAGGAAGAUGGCAUUUCU; all 2'-O-methyl, backbone not given here)
rescued dystrophin protein levels (DMD exon 51; systemic 2'-O-methyl AO, phase 1-2a): 1.8-15.6 % of normal
6 minute walk test at 48 weeks (DMD exon 51; weekly subcutaneous 6 mg/kg, non-placebo controlled extension): modest improvement

O=C1CN(/N=C/c2ncc(-c3ccc(Br)cc3)o2)C(=O)N1 [azumolene]
water solubility relative to dantrolene [4]: more water soluble than dantrolene
